# Reference: patent US7402557B2, “Combined treatment with keratinocyte growth factor and epidermal growth factor inhibitor” (priority 2000, dated 2008)
# B1: KGF-2: keratinocyte growth factor family member, also known as FGF-10 (protein, UniProt O15520 38-208, looked up)
# Fibroblast growth factor 10: QALGQDMVSPEATNSSSSSFSSPSSAGRHVRSYNHLQGDVRWRKLFSFTKYFLKIEKNGKVSGTKKENCPYSILEITSVEIGVVAVKAINSNYYLAMNKKGKLYGSKEFNNDCKLKERIEENGYNTYASFNWQHNGRQMYVALNGKGAPRRGQKTRRKNTSAHFLPMVVHS
# B2: KGF: Human recombinant KGF expressed in E. coli as a 19 kDa protein, purchased from Sigma Chemical Co. (protein, UniProt P21781 32-194, looked up)
# Fibroblast growth factor 7: CNDMTPEQMATNVNCSSPERHTRSYDYMEGGDIRVRRLFCRTQWYLRIDKRGKVKGTQEMKNNYNIMEIRTVAVGIVAIKGVESEFYLAMNKEGKLYAKKECNEDCNFKELILENHYNTYASAKWTHNGGEMFVALNQKGIPVRGKKTKKEQKTAHFLPMAIT
# B3: KGF-1: keratinocyte growth factor family member, also known as FGF-7 (protein, UniProt P21781 32-194, looked up)
# Fibroblast growth factor 7: B2 Fibroblast growth factor 7
# How the values were obtained:
# [1] = system: p27^kip1/waf1; test: Immunoblot of p27^kip1/waf1 protein level in NHEK lysates; type: cell-based, human; settings: 24 hr
# Method: (§1) The protective effect of KGF on keratinocytes was measured in two types of assays, the first to determine its protective effect on cell cycle phase distribution against a small molecule EGFR inhibitor, and the second to determine its protective effect against ppRB depletion and p27^kip1/waf1 upregulation caused by the EGFR inhibitor. The effect of KGF on cell cycle phase distribution was measured by bivariate analysis of bromodeoxyuridine incorporation and propidium iodide uptake by […] using flow cytometry. The protective effect of KGF against ppRB depletion and p27^kip1/waf1 upregulation was measured by immunoblotting of lysates from treated and control […] cells with antibodies specific for RB and p27^kip1/waf1, respectively. The methods are described in detail below.
# (§2) All experiments were carried out with normal human neonatal epidermal keratinoctyes, NHEK (Clonetics, San Diego, Calif.). Cells were maintained in Keratinocyte Growth Medium, KGM-2 (Clonetics). Human recombinant KGF expressed in E. coli as a 19 kDa protein was purchased from Sigma Chemical Co. (St. Louis, Mo.).
# (§3) NHEK cells were seeded in 6-well plates and grown until semi-confluent in KGM-2. […] Total protein concentration of the lysates was determined using the BCA protein assay (Pierce Chemicals, Rockford, Ill.). […]
# [2] = system: hyperphosphorylated retinoblastoma protein (ppRB); test: Immunoblot of hyperphosphorylated RB (ppRB) in NHEK lysates; type: cell-based, human; settings: 24 hr
# Method: as §1, §2, §3
# [3] = system: normal human neonatal epidermal keratinoctyes, NHEK; test: Flow cytometric measurement of cell cycle arrest (BrdU incorporation / propidium iodide); type: cell-based; settings: for % G1 / % G2 / % S: 24 hr, NHEK; for effect on cell cycle phase distribution (in words): keratinocytes treated for 24 hours
# Method: as §1, §2
# NHEK cells were seeded in 60-mm dishes in KGM-2. When the cells were semiconfluent, the medium was replaced with fresh medium containing the test agents: vehicle (0.125% DMSO); vehicle+20 ng/ml KGF; vehicle+0.3 μM CP-358, 774-01+/−20 ng/ml KGF; or vehicle+1 μM CP-358, 774-01+/−20 ng/ml KGF. The cells were incubated at 37° C. in a 5% CO2, humidified atmosphere. After 24 hr, bromodeoxyuridine (BrdU) was added to the medium at a final concentration of 10 μM for 30 min. The cells were then harvested using 0.25% trypsin/1 mM EDTA and counted using a Coulter counter. Aliquots of 2×10^6 cells were collected by centrifugation at 220×g for 5 min, washed in 2 ml phosphate buffered saline (PBS) containing 2.5% fetal calf serum, resuspended in 0.2 ml PBS, and fixed by the addition of 5 ml 70% ethanol at −20° C. After a 30 min incubation on ice, the cells were collected by centrifugation at 500×g for 5 min and resuspended in 25 μl PBS. One ml of 0.2 mg/ml pepsin in 2 N HCI was added and the cells were incubated for 30 min at rm temp. Cells were collected by centrifugation at 1500×g for 5 min and washed with 1 ml 0.1 M sodium borate, pH 8.5. Cells were pelleted at 1500×g for 5 min, resuspended in 1 ml of fluorescein isothiocyanate (FITC)-conjugated anti-BrdU (Becton Dickinson, San Jose, Calif.) diluted fifty-fold in PBS containing 0.5% Tween 20 and 1% bovine serum albumin, and incubated at ambient temperature in the dark for 30 min. After a final wash with PBS with 0.5% Tween 20 and 1% BSA, the cells were resuspended in PBS containing 10 μg/ml propidium iodide and 10 μg/ml RNase, filtered through a 35 µm mesh and analyzed on a FACSCalibur flow cytometer (Becton Dickinson) equipped with an argon laser with an emission wavelength of 488 nm. FITC fluorescence data was acquired at 515-545 nm, and propidium iodide fluorescence data was acquired at […]. A minimum of 20,000 cells was analyzed per sample. Data was analyzed using CellQuest software (Becton-Dickinson) and the percent of cells in each phase (G1, S, G2) of the cell cycle was calculated.
# [4] = system: p27^kip1/waf1; settings: cited from earlier work
# [5] = system: hyper-phosphorylated retinoblastoma protein (ppRB); settings: cited from earlier work
# [6] = system: normal keratinocytes and EGFR over-expressing tumor cells; settings: cited from earlier work
# [7] = system: FGFR1iiib receptor; settings: cited from earlier work
molecule,measurement,setting,value
C#Cc1cccc(Nc2ncnc3cc(OCCOC)c(OCCOC)cc23)c1.Cl [Compound A],induction of p27^kip1/waf1 protein levels,[1]; 0.3 μM Compound A,3.9 fold
same,induction of p27^kip1/waf1,[1]; 1 μM Compound A,5.2 fold
same,ppRB signal on RB immunoblot,[2]; 0.3 μM Compound A,dramatically reduced
same,ppRB band on RB immunoblot,[2]; 1 μM Compound A,completely abolished
same,% G1,[3]; 0.3 μM Compound A,75%
same,% G2,[3]; 0.3 μM Compound A,11%
same,% S,[3]; 0.3 μM Compound A,13%
same,% G1,[3]; 1 μM Compound A,85%
same,% G2,[3]; 1 μM Compound A,10%
same,% S,[3]; 1 μM Compound A,6.0%
same,effect on cell cycle phase distribution (in words),[3],concentration dependent accumulation of cells in the G1 phase of the cell cycle and a corresponding decrease in the S-phase fraction
"C#Cc1cccc(Nc2ncnc3cc(OCCOC)c(OCCOC)cc23)c1 [CP-358,774, [6,7-bis(2-methoxy-ethoxy)-quinazolin-4-yl]-(3-ethynylphenyl)amine]",effect on cyclin-dependent kinase inhibitor p27^kip1/waf1,[4],accumulation
same,effect on hyper-phosphorylated retinoblastoma protein (ppRB),[5],causes depletion
same,cell cycle arrest (accumulation of cells in G1 phase),[6],causes cell cycle arrest
B1,binding to FGFR1iiib receptor,[7],high affinity
B2,% G1,[3]; 20 ng/ml KGF alone,52%
same,% G2,[3]; 20 ng/ml KGF alone,13%
same,% S,[3]; 20 ng/ml KGF alone,34%
same,effect on cell cycle phase distribution (in words),[3],no significant effect
B3,binding to FGFR1iiib receptor,[7],high affinity
